The source of these data is PMC11537999, “Identification of human pregnane X receptor antagonists utilizing a high-throughput screening platform” (Frontiers in Pharmacology, 2024).

pIC50: −log10 of the molar value.

Series [1] deals with T1, hPXR (Homo sapiens, UniProt O75469).
T1 construct: expressed in transfected cells; provided by Dr. Taosheng Chen, St. Jude
T1 sequence (O75469 1-434): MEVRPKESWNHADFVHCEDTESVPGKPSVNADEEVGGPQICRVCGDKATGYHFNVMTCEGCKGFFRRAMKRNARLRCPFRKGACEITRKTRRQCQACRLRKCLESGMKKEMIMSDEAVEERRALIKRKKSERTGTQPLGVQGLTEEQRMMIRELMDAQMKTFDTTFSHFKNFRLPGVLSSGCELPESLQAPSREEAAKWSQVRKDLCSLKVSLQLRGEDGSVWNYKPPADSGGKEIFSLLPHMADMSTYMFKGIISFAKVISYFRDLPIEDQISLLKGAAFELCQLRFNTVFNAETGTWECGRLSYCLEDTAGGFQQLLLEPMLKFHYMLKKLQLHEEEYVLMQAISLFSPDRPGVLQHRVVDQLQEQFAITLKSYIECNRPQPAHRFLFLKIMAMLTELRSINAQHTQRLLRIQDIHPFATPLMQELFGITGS
Nature of the series: PXR luciferase reporter gene assay (qHTS antagonist mode, rifampicin co-treatment) in HepG2-CYP3A4-hPXR cells. It counts as cell-based. The settings on record: 2 μM rifampicin, used as treatment concentration in HepaRG cells. The protocol: HepG2 cells stably transfected with a CYP3A4-luc promoter construct and hPXR expression plasmid were provided by Dr. Taosheng Chen (Department of Chemical Biology and Therapeutics, St. Jude Children’s Research Hospital) ([Lin et al., 2008]). Cells were thawed in EMEM (ATCC, Rockville, Maryland), supplemented with 10% Hyclone FBS (GE Healthcare Life Sciences, Logan, Utah) and 100 U/mL of Penicillin and 100 μg/mL of Streptomycin (Invitrogen, Carlsbad, CA) and kept in an incubator at 37°C and 5% CO2. To culture these HepG2-CYP3A4-hPXR cells, 500 μg/mL of Geneticin (GIBCO, Gaithersburg, MD) was added to the thawing media.
(§1) HepG2-CYP3A4-hPXR cells were dispensed into tissue culture treated 1536-well white assay plates (Greiner Bio-One North America, Monroe, NC) using a Multidrop Combi (Thermo Fisher Scientific Inc., Waltham, Massachusetts) at 2,500 cells/4 µL/well. The cell suspension was prepared using new assay media, which contained phenol red-free DMEM (GIBCO), 5% charcoal/dextran-treated FBS (Invitrogen), 1 mM sodium pyruvate (Invitrogen), 2 mM L-Glutamine (Invitrogen), and 100 U/mL of Penicillin and 100 μg/mL of Streptomycin (Invitrogen). All plates were then incubated for 4 h in a 37°C and 5% CO2 incubator. […] In the primary screen, each compound was tested at 7 concentrations ranging from 46 μM to 1.5 nM. 1 μL of rifampicin, a known PXR agonist, was also co-treated in each well, generating a final concentration of 2 μM, using a Flying Reagent Dispenser (Aurora Discovery, Carlsbad, California). All assay plates were placed in an incubator at 37°C with 5% CO2 for 23 h. Following the incubation period, 1 µL of CellTiter-Fluor reagent (Promega, Madison, Wisconsin) was added to each well and all assay plates were placed back into the incubator set at 37°C and 5% CO2 for 1 h. Fluorescence intensity at 540 nm was measured following excitation at 405 nm using a ViewLux plate reader (Perkin Elmer, Shelton, Connecticut), in order to assess cell viability following treatment. Directly after the fluorescent read, 4 μL of ONE-Glo Luciferase reagent (Promega, Madison, Wisconsin) was added to each well using a Flying Reagent Dispenser, and plates were left to sit at room temperature for 30 min. The luminescence of each plate was then measured using the ViewLux plate reader and data were expressed as relative luminescence units. Gross assay performance was assessed by calculating quality metrics, such as coefficient of variance (CV), signal-to-background ratio (S/B), and Z′ factor, a measure of statistical effect size frequently used to judge whether an assay can be scaled up to a large high-throughput screen ([Zhang et al., 1999]).
Data analysis was completed using a previously described protocol ([Huang et al., 2016]). […] Normalized percent activity for all test compounds was determined using the following equation: % activity = [(V compound - V DMSO)/(V DMSO–V pos)] × 100, where V compound denotes the compound well values, V pos denotes the median value of the positive control wells, and V DMSO denotes the median value of the DMSO-only wells. Following normalization, data points were corrected using DMSO-only plates included at the beginning and end of the compound plate stack using an in-house pattern correction algorithm in order to remove background patterns, as well as other small abnormalities within the dataset ([Southall et al., 2009]). […] Efficacy is then [a inf - a 0 ]. a=a0+ainf−a0 c^n/k^n+c^n
Curve class was further converted to curve rank by combining each class with efficacy, such that good quality, efficacious curves are assigned large absolute curve rank values. […] The activity outcome was based on the PXR antagonist readout activity and a cell viability counter screen.

The target of series [2] is T1, hPXR. Kind of series: Pharmacological inhibition (IC50 shift) assay with varying rifampicin in HepG2-CYP3A4-hPXR cells. The settings on record: for shift in IC50 values with increasing rifampicin (in words): 5 μM, 7.5 µM or 10 µM rifampicin; for decrease in potency: co-treated with 2 µM versus 10 µM rifampicin; for pIC50: triplicate. It counts as cell-based. The protocol: as §1
Each curve was co-treated with 5 μM RIF, 7.5 μM RIF, or 10 μM RIF (a well-known PXR agonist) to determine pharmacological activity. […] Each curve was generated from a combination of all data points together.

Take `CC(=O)O[C@H]1C[C@@]2(C)[C@@H](C[C@@H](O)[C@H]3[C@@]4(C)CC[C@@H](O)[C@@H](C)[C@@H]4CC[C@@]32C)/C1=C(\CCC=C(C)C)C(=O)O` [fusidic acid]: the “IC70 values from the original NPACT screen” value on hPXR [1] came out at 5 µM. In addition, the “shift in IC50 values with increasing rifampicin (in words)” value on hPXR [2] is given as “generated a shift in IC50 values”. For the same compound, the decrease in potency entry on hPXR [2] is given as “more than 2 fold”. Also, the values for the pIC50 on hPXR [2] (co-treated with 5 μM RIF), on hPXR [2] (co-treated with 7.5 μM RIF) and at hPXR [2] (co-treated with 10 μM RIF) were 5.46, 5.34 and 5.11, respectively.

For the compound `COc1cc(-c2cn(C3CCc4c(F)cccc4N(CC(F)(F)F)C3=O)nn2)ccc1-n1cnc(C)c1` (stereo not drawn) [GSM2], the “IC70 values from the original NPACT screen” value at hPXR [1] was determined as 4 µM. Besides, the “shift in IC50 values with increasing rifampicin (in words)” value at hPXR [2] is given as “generated a shift in IC50 values”. Moreover, at hPXR [2], the decrease in potency result is recorded as “more than 2 fold”. Moreover, the pIC50 (usually the IC50 on a negative log10 scale, so that one unit is a factor of ten) at hPXR [2] (co-treated with 5 μM RIF) was 5.80; on hPXR [2] (co-treated with 7.5 μM RIF) it was 5.48; on hPXR [2] (co-treated with 10 μM RIF), 5.26.
